According to US20210369846A1 (priority 2018, published 2021):
“And” between values parts separate entries of the source, which are not always exact repeats. Equal values may be shown once. “Also recorded” adds a separate entry of the source. Marks after values point to notes of the source that are not given here.

What was measured:
[1] = Particle size distribution of O/W emulsions with Accusizer 780 Optical Particle Sizer; format: physicochemical; conditions: O/W emulsion; footnote c: measured with Accusizer 780 Optical Particle Sizer
Description: In an exemplary method of preparation, 180 mg of the surfactant was dissolved in 9 mL of ultrapure water (MilliQ), then 1 mL of Perfluorodecalin was added to the solution. The mixture was sonicated using an UP400St Hielscher ultrasonic homogenizer. Operation parameters of the device: A=90% (amplitude), continuous operation mode, sonotrode type—H14. The process of ultrasonic homogenization was carried out for about 2 minutes, while the reaction vessel was intensely cooled using an ice bath. 10 mL of the o/w emulsion with 10% v/v of the perfluorinated phase relative to the aqueous phase was obtained. As can be appreciated, this method is merely exemplary, and other methods or preparation approaches may be used.
The emulsion particle size distribution was determined using the Accusizer 780 Optical Particle Sizer PSS NICOMP device. A series of dilutions of the analyzed emulsion were prepared: 10-fold, 100-fold and 1000-fold with ultrapure water (MilliQ), in triplicate. The particle size distribution of the 1000-fold diluted emulsion was examined, a minimum of 3 measurements were taken, preparing approximately 30 mL of the diluted emulsion for each one of them. The results were presented by the several values: the average diameter (given in μm), and the percentage number of particles in different ranges (for example, in the diameter range 0.5-2 μm, 2-5 μm, 5-10 μm, >10 μm). The values from these three measurements were averaged and standard deviation was calculated.

[2] = test system: HMEC-1 human vascular endothelial cells
[3] = test system: blood
[4] = test system: L929 mouse fibroblasts
[5] = test system: male Sprague Dawley rats; test: Red blood cells substitute in vivo test: gradual bleeding with compensation in rats under general anaesthesia; parameters: species or system rat; conditions: for Amount of 5-min intervals (duration until cardiac cessation, per rat): exchange of 5% of blood volume per interval; for Amount of 5-min intervals (duration until cardiac cessation, per rat) / Amount of 5-min intervals expressed in min (per rat): individual rats; for Hematocrit at the end of the experiment: gradual decrease from physiological values; for Systolic blood pressure was >40 mm Hg for: tail cuff; for pH maintained at 7.3 up to: venous blood
Description: The study protocol was approved by the Local Ethical Committee (No. WAW2/057/2018), Warsaw University of Life Sciences, Warsaw, Poland. Study was carried out by the Department of Large Animal Diseases with the Clinic of the Faculty of Veterinary Medicine of the Warsaw University of Life Sciences in Warsaw. The study involved male Sprague Dawley rats (n=19; weight, 400±20 g; age, 8 to 12 weeks) obtained from the Mossakowski Medical Research Centre, Polish Academy of Sciences (Warsaw, Poland) divided into 4 non-equal groups (table below). The animals were kept in accordance with national animal welfare guidelines.
12 h before the experiment, feedstuffs were removed from animals' cages without restrictions to the water. Animals were weighted for circulating blood volume calculation according to Lee and Blaufox (1985) and anesthetized by intramuscular injection of the mixture of Ceptor—0.1 mL (Scanvet), Butomidor—0.1 mL (Richter Pharma AG) and Bioketan—0.1 mL (Vetoquinol). Within 2 min after injection, animals were placed in the dorsal position, on Thermo-Controlled Surgery Platform (Braintree Scientific, USA) and the catheter for blood collection was implanted.
A silicone catheter (Scientific Commodities INC, USA) was inserted into the left common jugular vein towards the heart and fastened with a tie (non-absorbable twisted strand, 4-0) for best fluid delivery and blood sampling. The catheter was kept filled with Ringer's fluid between the blood removals. The catheter's patency was maintained without the use of anti-clotting agents. The skin was not stitched, a swab moistened with saline solution was applied to the wound. Then the rats were transferred to a GN 1/1 electric heating plate (temp. 37±1° C., Bartscher, Poland), where a cuff was applied to the rat's tail to measure bloodless tail blood pressure (MLT125R, ADI, Australia), connected to the system NIBP (Non-Invasive Blood Pressure, ADI, Australia) and eight-channel PowerLab (ADI, Australia) and PC. Throughout the experiment, pulse and blood pressure were recorded in the Chart program (ADI, Australia). During the entire experiment, systolic and mean arterial blood readings were taken up to a blood pressure systolic threshold reading of 40 mm Hg between blood collections.
A total of 4 experiment variants were performed, as in the table above, using the method of gradual bleeding with compensation described in the previous experiment (5% of circulating blood). Compensations were used in subsequent experiments: Voluven fluid (Hydroxyethyl starch (HES 130/0.4), dextran 130 kDa, Fresenius Kabi) and formulations 2j3c, 2j3e and 2l3e (NanoSanguis) administered in Voluven fluid (concentration 0.5% w/v).
In venous blood samples, blood gas determinations (Siemens EPOC gasometer) were performed: pH, pCO2 (CO2 pressure, mm Hg), pO2 (oxygen pressure, mm Hg), cHCO3-(bicarbonate ion concentration, mmol/L), BE (ecf) (deficiency in blood buffering bases, mmol/L), hematocrit (Hct, %, less precise measurement than in a morphology analyzer), glucose (mg/dL), lactate (Lac, mmol/L), creatinine (Crea, mg/dL) followed by morphology (Mindray analyzer): hematocrit (hct, %), hemoglobin (g/L), red blood cell count (RBC, 10^12/L), white blood cell count (WBC, ×10^9/L) and platelet count (PLT, ×10^9/L). […] The results are given in the attached Excel spreadsheet. Blood for other biochemical analyses was centrifuged and frozen (−20° C.). Collected organ (liver, kidney, lung and heart) samples were fixed in buffered formalin, and after 48 hours. transferred to 70% ethyl alcohol and stored for histological examination. Histological examination was performed after routine staining of the hematoxylin and eosin sections.

[6] = test system: L929 and HMEC-1 cell lines

SMILES	Average diameter [1]	Maximum Non-Cytotoxic Concentration HMEC-1 [2]	Maximum Non-Hemolytic Concentration [3]	Maximum Non-Cytotoxic Concentration L929 [4]	other results
O=C(O)CSCCC(F)(F)C(F)(F)C(F)(F)C(F)(F)C(F)(F)C(F)(F)C(F)(F)C(F)(F)F [2a3b]	640 ± 10 ^c nm	0.5%	0.25%	0.5%	
O=C(O)CSCCC(F)(F)C(F)(F)C(F)(F)C(F)(F)C(F)(F)C(F)(F)C(F)(F)C(F)(F)F [2a3d]	640 ± 10 ^c nm	0.1%	0.02%	0.2%	
O=C([O-])CSCCC(F)(F)C(F)(F)C(F)(F)C(F)(F)C(F)(F)C(F)(F)C(F)(F)C(F)(F)F.[K+] [2aK]	770 ± 20 ^c nm	1%	>2.00%	1%	
O=C([O-])CSCCC(F)(F)C(F)(F)C(F)(F)C(F)(F)C(F)(F)C(F)(F)C(F)(F)C(F)(F)F.[Na+] [2cNa]	710 ± 20 ^c nm	0.2%	0.5%	1%	
O=C([O-])CCC(=O)OCCC(F)(F)C(F)(F)C(F)(F)C(F)(F)C(F)(F)C(F)(F)F.[K+] [2iK]	880 ± 40 ^c nm	0.25%	0.02%	<0.25** %	
O=C(O)CCC(=O)OCCC(F)(F)C(F)(F)C(F)(F)C(F)(F)C(F)(F)C(F)(F)C(F)(F)C(F)(F)F [2j3c]		0.5%	>2.00%	0.25%	Lactate concentration above physiological values (limit 8.5 mmol/L) occurred at intervals ([5]; 0.5% w/v in Voluven): 15 intervals and 19 intervals; RBC at the end of the experiment ([5]; 0.5% w/v in Voluven): ~2e+12 L⁻¹; Survival of rats higher compared to the control group receiving Voluven ([5]; 0.5% w/v in Voluven): 7 intervals; WBC at the end of the experiment ([5]; 0.5% w/v in Voluven): ~1e+09 L⁻¹; Amount of 5-min intervals (duration until cardiac cessation, per rat) ([5]; 0.5% w/v in Voluven): 24 5-min intervals and 23 5-min intervals and 18 5-min intervals (2×) and 11 5-min intervals; Hematocrit at the end of the experiment ([5]; 0.5% w/v in Voluven): about 9%; Amount of 5-min intervals expressed in min (per rat) ([5]; 0.5% w/v in Voluven): 55 min and 120 min and 115 min and 90 min (2×); Systolic blood pressure was >40 mm Hg for ([5]; 0.5% w/v in Voluven): 12 intervals and 20 intervals; pH maintained at 7.3 up to ([5]; 0.5% w/v in Voluven): 13 intervals and 17 intervals
O=C(O)CCC(=O)OCCC(F)(F)C(F)(F)C(F)(F)C(F)(F)C(F)(F)C(F)(F)C(F)(F)C(F)(F)F [2j3e]		0.5%	1%	0.5%	Buffer balance deficiency (Be (ecf)) occurred at ([5]; 0.5% w/v in Voluven): 14-19 intervals; Lactate concentration above physiological values (limit 8.5 mmol/L) occurred at intervals ([5]; 0.5% w/v in Voluven): 13-19 intervals; Survival of rats higher compared to the control group receiving Voluven ([5]; 0.5% w/v in Voluven): 8 intervals; Amount of 5-min intervals (duration until cardiac cessation, per rat) ([5]; 0.5% w/v in Voluven): 15 5-min intervals and 17 5-min intervals and 21 5-min intervals and 25 5-min intervals and 29 5-min intervals; Hematocrit at the end of the experiment ([5]; 0.5% w/v in Voluven): about 5%; Amount of 5-min intervals expressed in min (per rat) ([5]; 0.5% w/v in Voluven): 145 min and 75 min and 85 min and 105 min and 125 min; pH maintained at 7.3 up to ([5]; 0.5% w/v in Voluven): 13 intervals and 20 intervals; Maintaining systolic pressure above the limit, comparing to other test groups ([5]; limit 40 mm Hg): longer
O=C([O-])CCC(=O)OCCC(F)(F)C(F)(F)C(F)(F)C(F)(F)C(F)(F)C(F)(F)C(F)(F)C(F)(F)F.[K+] [2jK]	1090 ± 10 ^c nm	0.5%	>2.00%	<0.25%	
O=C([O-])CCC(=O)OCCC(F)(F)C(F)(F)C(F)(F)C(F)(F)C(F)(F)C(F)(F)C(F)(F)C(F)(F)F.[Na+] [2jNa]	820 ± 20 ^c nm	0.5%	1%	<0.25%	
O=C(O)CCCC(=O)OCCC(F)(F)C(F)(F)C(F)(F)C(F)(F)C(F)(F)C(F)(F)C(F)(F)C(F)(F)F [2l3e]		>2.00%	>2.00%	>2.00%	Survival of rats higher compared to the control group receiving Voluven ([5]; 0.5% w/v in Voluven): 10 intervals; Amount of 5-min intervals (duration until cardiac cessation, per rat) ([5]; 0.5% w/v in Voluven): 10 5-min intervals and 13 5-min intervals and 21 5-min intervals and 28 5-min intervals and 31 5-min intervals; Amount of 5-min intervals expressed in min (per rat) ([5]; 0.5% w/v in Voluven): 155 min and 60 min and 75 min and 105 min and 140 min; Systolic blood pressure was >40 mm Hg for ([5]; 0.5% w/v in Voluven): 18-22 intervals; pH maintained at 7.3 up to ([5]; 0.5% w/v in Voluven): 20-21 intervals; Change caused slower in comparison to the control group ([5]; control: Voluven): pH decrease; also recorded: increase in pCO2; also recorded: decrease in buffer base deficiency; also recorded: increase of lactate and creatinine
O=C(O)CCCC(=O)OCCC(F)(F)C(F)(F)C(F)(F)C(F)(F)C(F)(F)C(F)(F)C(F)(F)C(F)(F)F [2l3k]		>1.00%	>2.00%	>1.00%	Cytotoxic potential [6]: low cytotoxic potential
